Patent US9539262B2, “Ophthalmic composition comprising a prostaglandin” (SUN PHARMA ADVANCED RESEARCH COMPANY, LTD., priority 2007, dated 2017)

System: New Zealand White Rabbits
Assay: Ocular irritancy potential and systemic toxicity, daily repeated ocular instillation
Type: in vivo
Procedure: The pharmaceutical compositions of the present invention were tested in New Zealand White Rabbits, for ocular irritancy potential and systemic toxicity. The pharmaceutical composition of the present invention and polyethylene glycol hydroxystearate (the excipient) both were tested. The test involved daily repeated ocular instillation for at least 14 days.

In the case of `CC(C)OC(=O)CCC/C=C\C[C@@H]1[C@@H](CC[C@@H](O)CCc2ccccc2)[C@H](O)C[C@@H]1O` [latanoprost, isopropyl-(Z)-7[(1R,2R,3R,5S)3,5-dihydroxy-2-[(3R)-3-hydroxy-5-phenylpentyl]cyclopentyl]-5-heptenoate], the “gross or microscopical pathological lesion” value (at least 14 days ocular instillation) is reported as “did not result into any gross or microscopical pathological lesion”, the “alterations in body weight, % body weight gain, terminal body weight, absolute and relative organ weights, differential cell count of bone marrow, biochemical and hematological parameters” value (at least 14 days ocular instillation, compared to the control group) is reported as “no statistically significant alterations” and the “clinical sign or irritation in the eyes” value (daily repeated ocular instillation for at least 14 days, Solutol HS 15 approximately 47 times HRD, latanoprost approximately 48 times HRD) is reported as “no clinical sign or irritation in the eyes”.
